Data taken from patent US12201609B2, “Saroglitazar for the treatment of hepatocellular carcinoma” (CADILA HEALTHCARE LIMITED, priority 2018, dated 2025).

Test system: Hepatocellular Carcinoma Induced by Intraperitoneal Injection of Diethylnitrosamine in C57/BL6 Mice
Assay: Saroglitazar efficacy in hepatocellular carcinoma induced by diethylnitrosamine (DEN) injection and CDAHFD feeding in mice
Type: in vivo, C57BL/6 male mice
Settings: CDAHFD-DEN mice; for Serum ALT levels, % Change Vs Disease Control / Serum AST levels, % Change Vs Disease Control / Serum TG levels, % Change Vs Disease Control / % animals showing liver tumor / No. of animal with tumor / No. of liver tumors/animal / Serum ALT levels / Serum AST levels / Serum TG levels: p.o.; for % animals showing liver tumor / No. of animal with tumor / No. of liver tumors/animal: 27 weeks treatment; for Serum ALT levels / Serum AST levels / Serum TG levels: at termination
Description: Evaluation of Saroglitazar's efficacy in Hepatocellular Carcinoma Induced by Intraperitoneal Injection of Diethylnitrosamine in C57/BL6 Mice.
In this study, hepatocellular carcinoma (HCC) was induced in C57BL/6 male mice first by injecting them with diethylnitrosamine (DEN) and by then feeding them a choline-deficient, L-amino acid-defined, high-fat diet (CDAHFD); Developed an experimental mouse model of hepatocellular carcinoma (Ohno T, Shimizu M, Shirakami Y, Baba A, Kochi T, Kubota M, et al. (2015) Metformin Suppresses Diethylnitrosamine-Induced Liver Tumorigenesis in Obese and Diabetic C57BL/KsJ−+Leprdb/+Leprdb Mice. PLoS ONE 10(4): e0124081; Journal of Cancer, 2018; 9(5): 914-922;)
The objective of this study was to evaluate the efficacy of Saroglitazar for prevention and or regression of hepatocellular carcinoma in mice after intraperitoneal injection of diethylnitrosamine and feeding of Choline deficient, L-amino acid-defined, High-fat Diet.
HCC was induced in C57BL/6 male mice by feeding them a choline-deficient, L-amino acid-defined, high-fat diet (CDAHFD) and administration of diethylnitrosamine (DEN). DEN was administered one-time by intraperitoneal route at the age of 3-weeks. Treatment with Saroglitazar (1 and 3 mg/kg) was initiated after 8 weeks of CDAHFD initiation and continued for 27 weeks.
After 8 weeks of CDAHFD diet (or DEN administration) blood collection was performed for serum ALT, AST and on the basis serum ALT level animals were divided in to following groups: • 1. Control for CDAHFD+Vehicle (n=10)—Normal Control • 2. CDAHFD—Saline+Vehicle (n=10)—CDAHFD Control • 3. CDAHFD—DEN+Vehicle (n=15)—Disease Control • 4. CDAHFD—DEN+Saroglitazar 1 mg/kg, p.o. (n=15)—D-Saro (1 mg/kg, p.o.) • 5. CDAHFD—DEN+Saroglitazar 3 mg/kg, p.o. (n=15)—D-Saro (3 mg/kg, p.o.)
Test compound formulation was prepared in Tween 80 and 0.5% sodium CMC in ratio of 0.5:99.5 in such that volume of administration will be 10 ml/kg.
Treatment along with diet was continued for 27 weeks.
In this study almost 50% animals from each group were terminated at 31 weeks after DEN injection and remaining 50% animals were sacrificed at 35 weeks after DEN administration (i.e. completion of 27 weeks of treatment). At termination, blood collection was performed for serum parameters like ALT, AST and TG. Animals were sacrificed; spleen and liver will be collected and weighed. Liver will be observed for presence of tumors, number of tumors and size of tumors. Liver was collected for liver biochemistry, histology

For `CCO[C@@H](Cc1ccc(OCCn2c(C)ccc2-c2ccc(SC)cc2)cc1)C(=O)O` [Saroglitazar], the “prevention of hepatic carcinogenesis” value (3 mg/kg dose) was 100%, the “tumor in liver (in words)” value (3 mg/kg dose) was “did not show any tumor in liver” and the “reduction in serum ALT” value (3 mg/kg, vs disease control) was 40%. For the same molecule, the “reduction in serum AST” value (3 mg/kg, vs disease control) was 44%, the “effect on liver tumor incidence (in words)” value (1 and 3 mg/kg) was “dose dependent effect on liver tumor incidence” and the “serum triglycerides levels (in words)” value (1 and 3 mg/kg) was “dose dependent reduction”. For the same molecule, the “Serum ALT levels, % Change Vs Disease Control” value (Saroglitazar 1 mg/kg) was −33.6%, the “Serum AST levels, % Change Vs Disease Control” value (Saroglitazar 1 mg/kg) was −36.2% and the “Serum TG levels, % Change Vs Disease Control” value (Saroglitazar 1 mg/kg) was −38.4%. For the same molecule, the “% animals showing liver tumor” value (Saroglitazar 1 mg/kg) was 20.0%, the “No. of animal with tumor” value (Saroglitazar 1 mg/kg) was 3 out of 15 and the “No. of liver tumors/animal” value (Saroglitazar 1 mg/kg) was 0.3. For the same molecule, the “Serum ALT levels” value (Saroglitazar 1 mg/kg) was 232.3 U/L, the “Serum AST levels” value (Saroglitazar 1 mg/kg) was 231.1 U/L and the “Serum TG levels” value (Saroglitazar 1 mg/kg) was 42.7 mg/dL. For the same molecule, the “Serum ALT levels, % Change Vs Disease Control” value (Saroglitazar 3 mg/kg) was −39.9%, the “Serum AST levels, % Change Vs Disease Control” value (Saroglitazar 3 mg/kg) was −43.9% and the “Serum TG levels, % Change Vs Disease Control” value (Saroglitazar 3 mg/kg) was −54.6%. For the same molecule, the “% animals showing liver tumor” value (Saroglitazar 3 mg/kg) was 0.0%, the “No. of animal with tumor” value (Saroglitazar 3 mg/kg) was 0 out of 15 and the “No. of liver tumors/animal” value (Saroglitazar 3 mg/kg) was 0.0. The “Serum ALT levels” value (Saroglitazar 3 mg/kg) was 210.5 U/L, the “Serum AST levels” value (Saroglitazar 3 mg/kg) was 203.0 U/L and the “Serum TG levels” value (Saroglitazar 3 mg/kg) was 31.5 mg/dL. The “liver injury markers, serum ALT and AST (in words)” value (Saroglitazar treatment) was “significant reduction”.
